For orientation: Emax means the size of the effect at its maximum, as opposed to the concentration needed. The EC50 is the concentration that produces a half-maximal response. Higher therefore signals lower potency in that assay.

We go through 11 compounds from US12459953B2, “TREM2 modulators” (Muna Therapeutics ApS, priority 2024, dated 2025).

The experiment has as its target T1, Human TREM2 (Homo sapiens, UniProt Q9NZC2).
T1 construct: expressed in transfected cells
The experiment in a line: Human TREM2 activity by cellular phosphorylation of Syk (AlphaLISA SureFire Ultra p-SYK) in HEK293/DAP12+TREM2 stable cell line. The experiment is classed as cell-based. The settings on record: HEK293/DAP12+TREM2 cells; for Emax: maximal response relative to the maximal response of the reference agonist (8-(4-chloro-2-fluorophenyl)-2,3-dimethyl-6-[(2S)-2-(1-methyl-1H-pyrazol-4-yl)morpholin-4-yl]-3H,4H-[1,3]diazino[5,4-d]pyrimidin-4-one); for EC50: phospho-Syk AlphaScreen signal, 30 min incubation, concentration giving 50% of maximal response. An excerpt:
Human TREM2, in vitro Measurement of Triggering Receptor Expressed on Myeloid Cells 2 activity using cellular phosphorylation of Spleen Tyrosine Kinase (“Syk”) Assay
HEK-293 cells were co-transfected with separate plasmids encoding TREM2 and DAP12 to generate a stable cell line. After antibiotic selection, functional clone pool analysis and two successive limiting dilutions, the final clone
“HEK293/DAP12+TREM2” underwent a qPCR analysis and a pharmacological validation.
TREM2 signaling through DAP12 was monitored in the HEK293/DAP12+TREM2 stable cell line by measuring the phosphorylation levels of the Syk kinase using the commercially available AlphaLISA SureFire Ultra p-SYK (Tyr525/526) Assay Kit (PerkinElmer #ALSU-PSYK), based on the Perkin Elmer AlphaScreen/AlphaLISA technology.
Compounds are transferred to the test plate and tested in full dose response, 8 concentrations in quadruplicate data points. Compound serial dilutions were performed at Cybi-Felix instrument in 100% DMSO and the dose response curves were assembled in automated fashion in 384MPT at Hamilton STARIet instrument. All the stock solutions were prepared at 20 mM in 100% DMSO. For compounds testing, the starting concentration was 100 μM, dilution steps 1:6. A different concentration's range was adapted for compound's activity based on the preliminary results. Finally, a 384MPT reformatted for all compounds at 8 concentrations, quadruplicates, was used as “mother to child” process with a CyBi®-Well dispenser in which 1 μL of each compound was moved into a destination plate pre-filled with 65.6 μL of EMEM cell culture medium (BIOWHITTAKER_cat.BE12-125F), thus obtaining 3× concentrated compounds working solution. In columns 1-2 and 23-24 the control wells were added. In particular, dose response curves of a reference control agonist were included in column 1 and 24 as reference control agonist (Reference control agonists used include Human TREM2 polyclonal Antibody AF1828: R&D Systems; Human TREM2 monoclonal Antibody MAB1828: R&D Systems). The dose response curves were tested starting at 30 μM, dilution step 1:6. Both “source” compound plate and “destination” compound plate were barcoded and a relationship between the two plates was thus generated.
HEK293/DAP12+TREM2 cells were cultured in EMEM medium supplemented with IX Penicillin/Streptomycin (BIOWHITTAKER_cat.DE17-602E), ULTRAGLUTAMINE I 200 mM, 10% Fetal Bovine Serum plus antibiotics referred to as “HEK293 Culture Medium”. The day before the experiment, cells were detached by gentle wash with DPBS, followed by 5 min incubation at 37° C. with Trypsin solution. Cells were then diluted in HEK293 Culture Medium without antibiotics, counted and seeded into 384-well poly-D-Lysine coated microplates black/clear bottom (GREINER 781946) at a density of 10,000 cells/well in 25 μL/well by the use of a MATRIX WellMate dispenser. Plates were placed into a humidified cell culture incubator at 37° C. with 5% CO2 until the experimental day. 20-24 hours after seeding mature medium was removed and replaced with 10 μL/well of EMEM cell medium supplemented with 0.1% Pluronic F-68 non-ionic surfactant (Thermofisher, 24040032), referred to as “Assay Buffer”, using the CyBi®-Well instrument. Then 5 μL/well of Assay Buffer containing 3× concentrated test compounds or the reference control agonist (in 0.5% final DMSO concentration) were added to the cells with the CyBi®-Well instrument. Cell plates were incubated for 30 min into a humidified cell culture incubator at 37° C. with 5% CO2,then the medium was removed by manually discard. 20 μL/well of lysis buffer were dispensed using the CyBi®-Well instrument and plates were incubated for 10 min at room temperature on a plate shaker (350 rpm). Then, 10 μL/well of lysate were transferred to the Alpha plates. The CyBi®-Well instrument was used to dispense 5 μL/well of AlphaLISA Acceptor Bead Solution in IX Immunoassay buffer (Perkin Elmer ALOOOF). […]

The structures appear in SMILES notation.

T1 sequence (Q9NZC2 19-230): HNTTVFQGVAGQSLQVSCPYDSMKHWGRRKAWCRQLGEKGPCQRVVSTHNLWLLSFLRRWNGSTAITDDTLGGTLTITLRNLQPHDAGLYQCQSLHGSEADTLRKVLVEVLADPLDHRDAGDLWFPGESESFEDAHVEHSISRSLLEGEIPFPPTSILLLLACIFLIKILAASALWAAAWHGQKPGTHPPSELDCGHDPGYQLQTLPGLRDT
T1 sequence (O43914 22-113 partner): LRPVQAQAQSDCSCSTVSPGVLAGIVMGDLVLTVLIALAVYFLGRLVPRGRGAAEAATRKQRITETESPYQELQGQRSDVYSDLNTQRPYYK

`C[C@H]1CN(c2nc(-c3ccc(C#N)cc3)c3nc(C(F)(F)F)n(C)c(=O)c3n2)C[C@@H](c2cnn(C3CC3)c2)O1` (single isomer, unassigned) [Example 11B] had an Emax of 75 to 110% and an EC50 of 0.001 to 0.01 µM.

Turning to `COc1cc([C@H]2CN(c3nc(-c4ccc(F)cc4F)c4nc(C(F)(F)F)n(C)c(=O)c4n3)CCO2)ccn1` (single isomer, unassigned) [Example 12A], the Emax is 75 to 110% and the EC50 is below 0.001 µM.

Take `COc1cc([C@@H]2CN(c3nc(-c4ccc(F)cc4F)c4nc(C(F)(F)F)n(C)c(=O)c4n3)CCO2)ccn1` (single isomer, unassigned) [Example 12B]: the Emax was in the range of 75 to 110% and the EC50 was in the range of 0.01 to 0.1 µM.

The compound `C[C@@H]1CN(c2cc3c(=O)n(C)c(C(F)(F)F)nc3c(-c3ccc(C#N)cc3F)n2)C[C@H](c2cnn(C3CC3)c2)O1` (single isomer, unassigned) [Example 13A] gave an Emax of 75 to 110% and an EC50 below 0.001 µM.

The compound `C[C@H]1CN(c2cc3c(=O)n(C)c(C(F)(F)F)nc3c(-c3ccc(C#N)cc3F)n2)C[C@@H](c2cnn(C3CC3)c2)O1` (single isomer, unassigned) [Example 13B] gave an Emax of 75 to 110% and an EC50 of 0.001 to 0.01 µM.

Compound `Cn1cc([C@H]2CN(c3cc4c(=O)n(C)c(C(F)(F)F)nc4c(-c4ccc(C#N)cc4F)n3)CC(F)(F)O2)cn1` (single isomer, unassigned) [Example 14A] gave an Emax of 75 to 110% and an EC50 of 0.001 to 0.01 µM.

Compound `Cn1cc([C@@H]2CN(c3cc4c(=O)n(C)c(C(F)(F)F)nc4c(-c4ccc(C#N)cc4F)n3)CC(F)(F)O2)cn1` (single isomer, unassigned) [Example 14B] yielded an Emax of 75 to 110% and an EC50 of 0.01 to 0.1 µM.

`Cn1cc([C@H]2CN(c3nc(-c4ccc(C#N)cc4F)c4nc(C(F)(F)F)n(C)c(=O)c4n3)CCO2)cn1` [Example 1, (S)-3-fluoro-4-(7-methyl-2-(2-(1-methyl-1H-pyrazol-4-yl)morpholino)-8-oxo-6-(trifluoromethyl)-7,8-dihydropyrimido[5,4-d]pyrimidin-4-yl)benzonitrile] gave an Emax of 75 to 110% and an EC50 below 0.001 µM.

In turn, `COc1ccc(-c2nc(N3CCO[C@@H](c4cnn(C)c4)C3)nc3c(=O)n(C)c(C(F)(F)F)nc23)c(F)c1` [Example 2, (S)-8-(2-fluoro-4-methoxyphenyl)-3-methyl-6-(2-(1-methyl-1H-pyrazol-4-yl)morpholino)-2-(trifluoromethyl)pyrimido[5,4-d]pyrimidin-4(3H)-one] came in with an Emax of 75 to 110% and an EC50 of 0.001 to 0.01 µM.

Compound `Cn1cc([C@H]2CN(c3nc(-c4ccc(C#N)cc4)c4nc(C(F)(F)F)n(C)c(=O)c4n3)CCO2)cn1` [Example 3, (S)-4-(7-methyl-2-(2-(1-methyl-1H-pyrazol-4-yl)morpholino)-8-oxo-6-(trifluoromethyl)-7,8-dihydropyrimido[5,4-d]pyrimidin-4-yl)benzonitrile] yielded an Emax below 75% and an EC50 of 0.001 to 0.01 µM.

In turn, `Cn1cc([C@H]2CN(c3cc4c(=O)n(C)c(C(F)(F)F)nc4c(-c4ccc(C#N)cc4F)n3)CCO2)cn1` [Example 15, (S)-3-fluoro-4-(3-methyl-6-(2-(1-methyl-1H-pyrazol-4-yl)morpholino)-4-oxo-2-(trifluoromethyl)-3,4-dihydropyrido[3,4-d]pyrimidin-8-yl)benzonitrile] came in with an Emax of 75 to 110% and an EC50 of 0.001 to 0.01 µM.
